SMILES strings stand for the structures.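 All cell lines were grown in 96-well plates and treated with compound for 48 hours. TGI: total growth inhibition.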 Where only a bound is given, the exact number is not on record here.

Results on four compounds are retold here after PubChem BioAssay (NCI).

Test systems include HS 578T breast; MDA-N; NCI-H522 lung; UACC-62 melanoma; OVCAR-8 ovarian; MOLT-4 leukemia; SK-OV-3 ovarian; LOX IMVI melanoma; HCT-15 colon; MDA-MB-231 breast; NCI/ADR-RES ovarian; SF-295 CNS; SNB-19 CNS; SW-620 colon; SK-MEL-5 melanoma.
Common to all, as to assay: NCI tumour cell line growth inhibition, 48 h

`COC(=O)C1OC(O[C@H]2CC[C@]3(C)[C@H]4CC=C5[C@@H]6CC(C)(C)CC[C@]6(C(=O)OC)CC[C@@]5(C)[C@]4(C)CC[C@H]3C2(C)C)C(O)C(O)C1O` (stereo not given in full): the TGI was 46.8 µM with HS 578T breast; 30.9 µM with MDA-N; 35.2 µM with NCI-H522 lung; 31 µM with UACC-62 melanoma; 31.2 µM in the test on OVCAR-8 ovarian; over 100 µM in the test on MOLT-4 leukemia. Further, the TGI in the test on SK-OV-3 ovarian was determined as 34.8 µM; in the test on LOX IMVI melanoma it was 20 µM; in the test with HCT-15 colon it was 27.1 µM; with MDA-MB-231 breast, 19.2 µM; with NCI/ADR-RES ovarian, 36.1 µM; in the test with SF-295 CNS, 28.7 µM. For the same compound, the TGI with SNB-19 CNS is 31.1 µM; with SW-620 colon it was 34.6 µM; in the test on SK-MEL-5 melanoma it was 32.2 µM.
Regarding `CN(C)c1ccc(/C=C/C(=O)c2cc(C(C)(C)C)c(O)c(C(C)(C)C)c2)cc1`, the TGI in the test on HS 578T breast is over 100 µM; with MDA-N it was 0.69 µM; in the test with NCI-H522 lung, 6 µM; in the test with UACC-62 melanoma, over 100 µM; in the test with OVCAR-8 ovarian, over 100 µM; in the test on MOLT-4 leukemia, over 100 µM. In addition, the TGI was over 100 µM in the test on SK-OV-3 ovarian; over 100 µM in the test with LOX IMVI melanoma; over 100 µM with HCT-15 colon; 8.69 µM in the test with MDA-MB-231 breast; 6.64 µM in the test on NCI/ADR-RES ovarian; 5.33 µM in the test with SF-295 CNS. Further, the TGI with SNB-19 CNS was over 100 µM; with SW-620 colon, over 100 µM; in the test on SK-MEL-5 melanoma, 16.5 µM.
For `COc1ccccc1C1C2=C(COC2=O)Oc2cc3c(cc21)OCO3` (stereo not given), the TGI was 13.3 µM in the test on HS 578T breast; 0.763 µM in the test on MDA-N; 8.11 µM in the test with NCI-H522 lung; over 100 µM in the test with UACC-62 melanoma; over 56.2 µM in the test on OVCAR-8 ovarian; over 100 µM with MOLT-4 leukemia. Moreover, the TGI is 45.9 µM in the test on SK-OV-3 ovarian; over 100 µM in the test on LOX IMVI melanoma; over 84.6 µM in the test on HCT-15 colon; over 87.6 µM in the test with MDA-MB-231 breast; over 39.8 µM with NCI/ADR-RES ovarian; 12.6 µM with SF-295 CNS. Besides, the TGI in the test with SNB-19 CNS is 72.3 µM; with SW-620 colon it was over 100 µM; in the test on SK-MEL-5 melanoma, over 100 µM.
With `Cc1ccc(S(=O)(=O)NC(=O)Nc2c(S(N)(=O)=O)cc(S(N)(=O)=O)c(Cl)c2Cl)cc1`, the TGI in the test on HS 578T breast, in the test on MDA-N, in the test with NCI-H522 lung, in the test with UACC-62 melanoma, in the test on OVCAR-8 ovarian and in the test on MOLT-4 leukemia was over 100 µM in each case. In addition, the TGI in the test with SK-OV-3 ovarian, in the test on LOX IMVI melanoma, in the test with HCT-15 colon, with MDA-MB-231 breast, in the test with NCI/ADR-RES ovarian and in the test on SF-295 CNS was over 100 µM throughout. The TGI with SNB-19 CNS, in the test on SW-620 colon and with SK-MEL-5 melanoma was over 100 µM each time.
